Tested on: S. aureus ATCC 6538
Experiment: Porcine deep partial-thickness wound model inoculated with S. aureus; planktonic (flush) and biofilm (scrub) bacterial counts on day 2
Format: in vivo, Staphylococcus aureus
Protocol: Summarily, forty-four deep, partial-thickness wounds were created on the paravertebral area on two pigs. Four wounds each were randomly assigned to eleven treatment groups and inoculated with S. aureus ATCC 6538. Wounds were treated with approximately 200 mg of each treatment. On day 2, wounds were assessed using a flush and scrub technique to recover planktonic and biofilm-associated bacterial count, respectively.
Swine (2 animals) were used as the experimental animal due to the morphological, physiological, and biochemical similarities between swine skin and human skin.
• 44 deep partial thickness wounds measuring 10 mm×7 mm×0.5 mm were made in the peravertebral and thoracic areas of each animal • 4 wounds were randomly assigned to each of the 11 treatment groups Inoculation: • 25 μl of inoculum of 10^6 CFU/ml were inoculated into each wound and scrubbed lightly using a sterile Teflon spatula. Experimental Design: Pig 1: Treatment Groups
• Within 20 minutes of inoculation each wound was treated with the appropriate treatment. Each wound was treated with ≅200 mg of the appropriate treatment (days 0 and 1). • All wounds were covered with polyurethane film dressings Wound Recovery: • A sterile surgical steel cylinder (22 mm inside diameter) was placed over the wound area and 1 ml of all-purpose neutralizer solution was pipetted inside. • The site was gently flushed by pipetting in and out three times to remove the loosely attached bacteria (a), this aliquot represents the planktonic bacteria. • The same wound was then encircled using another sterile cylinder and 1 ml of all-purpose neutralizer solution was again pipetted into the cylinder and this time scrubbed with a sterile Teflon spatula for 30 seconds to remove the firmly attached bacteria (b), this aliquot was aspirated and represents biofilm bacteria.

[1] = swine wounds, 30000 μM (=15 mg/ml) DTPA used alone, topical, day 2

| Substance | reduction in wound bioburden versus DTPA alone (0.1% Gentamicin positive control compared with all DTPA concentrations alone) | reduction of S. aureus counts compared to the untreated group (30000 μM DTPA alone) | bacterial counts (planktonic and biofilm) versus untreated control wounds (all concentrations of DTPA alone (30 to 30000 μM)) | biofilm count [1] | planktonic bacterial count [1] |
| --- | --- | --- | --- | --- | --- |
| gentamicin [Gentamicin 0.1%, reference compound] | substantially more reduction in wound bioburden than any of the DTPA concentrations alone | – | – | – | – |
| diethylenetriamine pentaacetic acid [DTPA] | – | 99.96% | reduced bacterial counts | 6.09±012 Log CFU/ml | 5.19±0.29 Log CFU/ml |

Reference: US10124064B2, “Antimicrobial compositions of aminoglycosidic antibiotics and zinc ion chelators specifically formulated for enhanced inhibition of bacterial colonization and antibacterial efficacy” (University of Cincinnati, priority 2013, dated 2018)
